In article PMC10997663, “Mechano-sensitivity of β2-adrenoceptors enhances constitutive activation of cAMP generation that is inhibited by inverse agonists” (Communications Biology, 2024):
Read-outs that look alike come from different tables or passages of the source.

Tests used:
β2-adrenoceptor (β2AR) [1] = target: T1, β2-adrenoceptor (β2AR) (Homo sapiens, UniProt P07550); assay: NanoBRET saturation binding in live HEK293G cells; format: cell-based
T1 construct: gene ADRB2; HiBiT-β2AR (N-terminal HiBiT tag), complemented with LgBiT
T1 sequence (P07550 whole entry): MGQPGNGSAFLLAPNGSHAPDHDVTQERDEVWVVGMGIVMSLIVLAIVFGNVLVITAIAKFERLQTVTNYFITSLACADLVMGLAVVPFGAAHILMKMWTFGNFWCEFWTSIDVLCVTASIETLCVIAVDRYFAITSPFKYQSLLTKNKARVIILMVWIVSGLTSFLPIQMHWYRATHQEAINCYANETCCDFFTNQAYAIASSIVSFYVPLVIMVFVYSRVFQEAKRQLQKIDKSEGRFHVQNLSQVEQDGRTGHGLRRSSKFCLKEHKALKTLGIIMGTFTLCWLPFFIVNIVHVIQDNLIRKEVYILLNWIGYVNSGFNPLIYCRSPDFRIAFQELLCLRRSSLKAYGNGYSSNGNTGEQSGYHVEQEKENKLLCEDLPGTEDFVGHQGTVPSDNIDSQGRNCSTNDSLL

β2-adrenoceptor (β2AR) [2] = assay: cells; set-up: species or system HEK293G overexpressing TS-SNAP-β2AR; GloSensor cAMP luminescence; inverse agonist inhibition of the peak basal (mechanically stimulated) response; conditions: HEK293G, read-out: % of control remaining
Method: (§1) Four inverse agonists were evaluated as inhibitors of the basal GloSensor^TM response in HEK293G cells overexpressing the TS-SNAP-β2AR (Fig. 3). […] Each inverse agonist was added immediately following an initial luminescence read at time zero. The plate therefore entered the PheraStar at time zero, was then removed for the addition of inverse agonist or HBSS and measurements were made again at t = 1 min and every minute thereafter. Values are mean ± SEM of five independent experiments.

β2-adrenoceptor (β2AR) [3] = assay: cells; set-up: species or system HEK293G overexpressing TS-SNAP-β2AR; GloSensor cAMP luminescence; inverse agonist inhibition of the peak basal (mechanically stimulated) response; conditions: HEK293G, read-out: % of control remaining; remark: listed apart in the source
Method: as §1

Structure (SMILES)	Kd (β2-adrenoceptor (β2AR) [1]) [nM]	activity at 10 µM (β2-adrenoceptor (β2AR) [2]) [%]	activity at 10 µM (β2-adrenoceptor (β2AR) [3]) [%]
Cc1ccc(OCC(O)C(C)NCCNC(=O)CCNC(=O)CCNC(=O)CCCCCNC(=O)COc2ccc(C=CC3=[N+]4C(=Cc5ccc(-c6cccs6)n5[B-]4(F)F)C=C3)cc2)c2c1CCC2 (stereo not drawn) [ICI-118551-βAla-βAla-BODIPY-X-630/650]	32.6 ± 7.42	–	–
COc1ccccc1OCCNCC(O)COc1cccc2[nH]c3ccccc3c12 (stereo not drawn) [carvedilol]	–	41.1 ± 4.32	54 ± 10.6
